According to patent publication US8957096B2, “Herbicidally active oxime-ether-substituted benzoylamides” (Bayer Intellectual Property GmbH, priority 2011, dated 2015):

How the values were obtained:
Type in all cases: in vivo
Abuthilon theophrasti [1] = assay: Post-emergence herbicidal action against harmful plants; settings: 504 h, application rate 80 g/ha, assessed visually after about 3 weeks vs untreated controls, read-out: herbicidal action in percent (%)
Description: (§1) 2. Post-Emergence Herbicidal Action Against Harmful Plants Seeds of monocotyledonous and dicotyledonous weed and crop plants are placed in sandy loam in wood-fiber pots, covered with soil and cultivated in a greenhouse under good growth conditions. 2 to 3 weeks after sowing, the test plants are treated at the one-leaf stage. The inventive compounds formulated in the form of wettable powders (WP) or as emulsion concentrates (EC) are then sprayed onto the green parts of the plants as an aqueous suspension or emulsion at a water application rate of 600 to 800 l/ha (converted) with addition of 0.2% wetting agent. After the test plants have been left to stand in the greenhouse under optimal growth conditions for about 3 weeks, the action of the formulations is assessed visually in comparison to untreated controls (herbicidal action in percent (%): 100% activity=the plants have died, 0% activity=like control plants). Here, the compounds Nos. 1-001, 1-002, 1-004, 1-005, 1-007, 1-008, 1-014, 1-015, 1-017, 1-018, 1-020, 1-033, 1-040, 1-041, 1-043, 1-044, 1-046, 1-047, 1-053, 1-054, 1-056, 1-057, 1-059, 1-060, 1-079, 1-080, 1-082, 1-083, 1-086, 1-092, 1-093, 1-095, 1-096, 1-098, 1-099, 2-015, 3-014, 3-015, 3-017, 3-018, 3-020, 5-082, 5-095, 6-017, 7-017 and 8-014 each show, at an application rate of 80 g/ha, an activity of at least 80% against Abuthilon theophrasti, Amaranthus retroflexus and Stellaria media. The compounds Nos. 4-092, 4-093, 5-004, 5-017, 5-043 and 5-056 each show, at an application rate of 80 g/ha, an activity of at least 80% against Echinocloa crus galli, Pharbitis purpureum and Stellaria media.

Stellaria media [2] = assay: as above; settings: 504 h, application rate 80 g/ha, assessed visually after about 3 weeks vs untreated controls, read-out: herbicidal action in percent (%)
Description: as §1

Amaranthus retroflexus [3] = assay: as above; settings: 504 h, application rate 80 g/ha, assessed visually after about 3 weeks vs untreated controls, read-out: herbicidal action in percent (%)
Description: as §1

Setaria viridis = assay: Pre-emergence herbicidal action against harmful plants; settings: 504 h, application rate 320 g/ha, assessed visually after 3 weeks vs untreated controls, read-out: herbicidal activity in percent (%)
Description: (§2) 1. Pre-Emergence Herbicidal Action Against Harmful Plants Seeds of monocotyledonous and dicotyledonous weed plants and crop plants are placed in wood-fiber pots in sandy loam and covered with soil. The compounds according to the invention, formulated in the form of wettable powders (WP) or as emulsion concentrates (EC), are then applied as aqueous suspension or emulsion at a water application rate of 600 to 800 l/ha (converted) with the addition of 0.2% of wetting agent to the surface of the covering soil. After the treatment, the pots are placed in a greenhouse and kept under good growth conditions for the test plants. The damage to the test plants is assessed visually after a test period of 3 weeks by comparison with untreated controls (herbicidal activity in percent (%): 100% activity=the plants have died, 0% activity=like control plants). Here, the compounds Nos. 1-002, 1-004, 1-007, 1-008, 1-043, 1-044, 1-046, 1-047, 1-060, 1-079, 1-080, 1-082, 1-083, 1-085, 1-095, 1-096, 1-098, 1-099, 1-059, 2-015, 3-015, 3-018, 3-020, 4-001, 4-118, 5-004, 5-017, 5-043, 5-056, 5-082, 5-095, 6-017, 7-017, 8-017 and 8-014, for example, each show, at an application rate of 320 g/ha, an activity of at least 80% against Abuthilon theophrasti and Amaranthus retroflexus. The compounds Nos. 1-001, 1-005, 1-014, 1-015, 1-017, 1-018, 1-020, 1-033, 1-040, 1-041, 1-053, 1-054, 1-056, 1-057, 1-092, 1-093, 3-014, 3-015, 8-014, 8-017 and 8-015 each show, at an application rate of 320 g/ha, an activity of at least 80% against Setaria viridis and Stellaria media. The compounds Nos. 3-017, 4-092 and 6-004 show, at an application rate of 320 g/ha, an activity of at least 80% against Amaranthus retroflexus and Veronica persica.

Stellaria media [4] = assay: as above; settings: 504 h, application rate 320 g/ha, assessed visually after 3 weeks vs untreated controls, read-out: herbicidal activity in percent (%)
Description: as §2

Abuthilon theophrasti [5] = assay: as above; settings: 504 h, application rate 320 g/ha, assessed visually after 3 weeks vs untreated controls, read-out: herbicidal activity in percent (%)
Description: as §2

Amaranthus retroflexus [6] = assay: as above; settings: 504 h, application rate 320 g/ha, assessed visually after 3 weeks vs untreated controls, read-out: herbicidal activity in percent (%)
Description: as §2

CO/N=C/c1c(Cl)ccc(C(=O)Nc2nnnn2C)c1Cl [1-001]
≥ 80%: pest or weed control at 80 g/ha (Abuthilon theophrasti [1]) | pest or weed control at 80 g/ha (Stellaria media [2]) | pest or weed control at 80 g/ha (Amaranthus retroflexus [3]) | pest or weed control at 320 g/ha (Setaria viridis) | pest or weed control at 320 g/ha (Stellaria media [4])

CCO/N=C/c1c(Cl)ccc(C(=O)Nc2nnnn2C)c1Cl [1-002]
≥ 80%: pest or weed control at 80 g/ha (Abuthilon theophrasti [1]) | pest or weed control at 80 g/ha (Stellaria media [2]) | pest or weed control at 80 g/ha (Amaranthus retroflexus [3]) | pest or weed control at 320 g/ha (Abuthilon theophrasti [5]) | pest or weed control at 320 g/ha (Amaranthus retroflexus [6])

CO/N=C/c1c(S(C)(=O)=O)ccc(C(=O)Nc2nnnn2C)c1Cl [1-014]
≥ 80%: pest or weed control at 80 g/ha (Abuthilon theophrasti [1]) | pest or weed control at 80 g/ha (Stellaria media [2]) | pest or weed control at 80 g/ha (Amaranthus retroflexus [3]) | pest or weed control at 320 g/ha (Setaria viridis) | pest or weed control at 320 g/ha (Stellaria media [4])

CCO/N=C/c1c(S(C)(=O)=O)ccc(C(=O)Nc2nnnn2C)c1Cl [1-015]
≥ 80%: pest or weed control at 80 g/ha (Abuthilon theophrasti [1]) | pest or weed control at 80 g/ha (Stellaria media [2]) | pest or weed control at 80 g/ha (Amaranthus retroflexus [3]) | pest or weed control at 320 g/ha (Setaria viridis) | pest or weed control at 320 g/ha (Stellaria media [4])

CCn1nnnc1NC(=O)c1ccc(Cl)c(/C=N/OC)c1Cl [1-040]
≥ 80%: pest or weed control at 80 g/ha (Abuthilon theophrasti [1]) | pest or weed control at 80 g/ha (Stellaria media [2]) | pest or weed control at 80 g/ha (Amaranthus retroflexus [3]) | pest or weed control at 320 g/ha (Setaria viridis) | pest or weed control at 320 g/ha (Stellaria media [4])

CCO/N=C/c1c(Cl)ccc(C(=O)Nc2nnnn2CC)c1Cl [1-041]
≥ 80%: pest or weed control at 80 g/ha (Abuthilon theophrasti [1]) | pest or weed control at 80 g/ha (Stellaria media [2]) | pest or weed control at 80 g/ha (Amaranthus retroflexus [3]) | pest or weed control at 320 g/ha (Setaria viridis) | pest or weed control at 320 g/ha (Stellaria media [4])

CCn1nnnc1NC(=O)c1ccc(S(C)(=O)=O)c(/C=N/OC)c1Cl [1-053]
≥ 80%: pest or weed control at 80 g/ha (Abuthilon theophrasti [1]) | pest or weed control at 80 g/ha (Stellaria media [2]) | pest or weed control at 80 g/ha (Amaranthus retroflexus [3]) | pest or weed control at 320 g/ha (Setaria viridis) | pest or weed control at 320 g/ha (Stellaria media [4])

CCO/N=C/c1c(S(C)(=O)=O)ccc(C(=O)Nc2nnnn2CC)c1Cl [1-054]
≥ 80%: pest or weed control at 80 g/ha (Abuthilon theophrasti [1]) | pest or weed control at 80 g/ha (Stellaria media [2]) | pest or weed control at 80 g/ha (Amaranthus retroflexus [3]) | pest or weed control at 320 g/ha (Setaria viridis) | pest or weed control at 320 g/ha (Stellaria media [4])

C#CCON=Cc1c(S(C)(=O)=O)ccc(C(=O)Nc2nnnn2CC)c1Cl [1-057, 2-chloro-N-(1-ethyl-1H-tetrazol-5-yl)-4-(methylsulfonyl)-3-{[(prop-2-yn-1-yloxy)imino]methyl}benzamide]
≥ 80%: pest or weed control at 80 g/ha (Abuthilon theophrasti [1]) | pest or weed control at 80 g/ha (Stellaria media [2]) | pest or weed control at 80 g/ha (Amaranthus retroflexus [3]) | pest or weed control at 320 g/ha (Setaria viridis) | pest or weed control at 320 g/ha (Stellaria media [4])

CCCn1nnnc1NC(=O)c1ccc(Cl)c(/C=N/OC)c1Cl [1-079]
≥ 80%: pest or weed control at 80 g/ha (Abuthilon theophrasti [1]) | pest or weed control at 80 g/ha (Stellaria media [2]) | pest or weed control at 80 g/ha (Amaranthus retroflexus [3]) | pest or weed control at 320 g/ha (Abuthilon theophrasti [5]) | pest or weed control at 320 g/ha (Amaranthus retroflexus [6])

CCCn1nnnc1NC(=O)c1ccc(Cl)c(/C=N/OCC)c1Cl [1-080]
≥ 80%: pest or weed control at 80 g/ha (Abuthilon theophrasti [1]) | pest or weed control at 80 g/ha (Stellaria media [2]) | pest or weed control at 80 g/ha (Amaranthus retroflexus [3]) | pest or weed control at 320 g/ha (Abuthilon theophrasti [5]) | pest or weed control at 320 g/ha (Amaranthus retroflexus [6])

CCCn1nnnc1NC(=O)c1ccc(S(C)(=O)=O)c(/C=N/OC)c1Cl [1-092]
≥ 80%: pest or weed control at 80 g/ha (Abuthilon theophrasti [1]) | pest or weed control at 80 g/ha (Stellaria media [2]) | pest or weed control at 80 g/ha (Amaranthus retroflexus [3]) | pest or weed control at 320 g/ha (Setaria viridis) | pest or weed control at 320 g/ha (Stellaria media [4])

CCCn1nnnc1NC(=O)c1ccc(S(C)(=O)=O)c(/C=N/OCC)c1Cl [1-093]
≥ 80%: pest or weed control at 80 g/ha (Abuthilon theophrasti [1]) | pest or weed control at 80 g/ha (Stellaria media [2]) | pest or weed control at 80 g/ha (Amaranthus retroflexus [3]) | pest or weed control at 320 g/ha (Setaria viridis) | pest or weed control at 320 g/ha (Stellaria media [4])
